# What was measured:
# Assay in all cases: cells
# BB65-RCC = format: functional, cell-based, Homo sapiens; conditions: Homo sapiens, BB65-RCC;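 also: growth inhibition of the cell line, measured with a cell viability assay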
# Description: SANGER: Inhibition of human BB65-RCC cell growth in a cell viability assay.
# NEC8 = format: functional, cell-based, Homo sapiens; conditions: Homo sapiens, NEC8;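 also: growth inhibition of human NEC8 cells, read out by a cell viability assay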
# Description: SANGER: Inhibition of human NEC8 cell growth in a cell viability assay.
# CW-2 = format: functional, cell-based, Homo sapiens; conditions: Homo sapiens, CW-2;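 also: growth inhibition of CW-2 cells, read out by a cell viability assay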
# Description: SANGER: Inhibition of human CW-2 cell growth in a cell viability assay.
# SW684 = format: functional, cell-based, Homo sapiens; conditions: Homo sapiens, SW684;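 also: growth inhibition of human SW684 cells, measured by a cell viability assay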
# Description: SANGER: Inhibition of human SW684 cell growth in a cell viability assay.
# MV4-11 = format: functional, cell-based, Homo sapiens, MV-4-11; conditions: Homo sapiens, MV4-11;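 also: cell viability readout measuring growth inhibition of human MV-4-11 cells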
# Description: SANGER: Inhibition of human MV-4-11 cell growth in a cell viability assay.
# ES6 = format: functional, cell-based, Homo sapiens; conditions: Homo sapiens, ES6;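 also: growth inhibition of human ES6 cells, read out with a cell viability assay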
# Description: SANGER: Inhibition of human ES6 cell growth in a cell viability assay.
# MZ1-PC = format: functional, cell-based, Homo sapiens; conditions: Homo sapiens, MZ1-PC;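 also: cell viability assay measuring growth inhibition of human MZ1-PC cells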
# Description: SANGER: Inhibition of human MZ1-PC cell growth in a cell viability assay.
# no-10 = format: functional, cell-based, Homo sapiens; conditions: Homo sapiens;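 also: growth inhibition of no-10 cells, read out with a cell viability assay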
# Description: SANGER: Inhibition of human no-10 cell growth in a cell viability assay.
# KM12 = format: functional, cell-based, Homo sapiens; conditions: Homo sapiens, KM12;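 also: KM12 cell growth inhibition, read out with a cell viability assay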
# Description: SANGER: Inhibition of human KM12 cell growth in a cell viability assay.
# 8-MG-BA = format: functional, cell-based, Homo sapiens; conditions: Homo sapiens, 8-MG-BA;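 also: growth inhibition of 8-MG-BA cells, read out with a cell viability assay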
# Description: SANGER: Inhibition of human 8-MG-BA cell growth in a cell viability assay.
# IST-MEL1 = format: functional, cell-based, Homo sapiens; conditions: Homo sapiens, IST-MEL1;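 also: growth inhibition of the cell line, read out with a cell viability assay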
# Description: SANGER: Inhibition of human IST-MEL1 cell growth in a cell viability assay.
# DB = format: functional, cell-based, Homo sapiens; conditions: Homo sapiens, DB
# Description: SANGER: Inhibition of human DB cell growth in a cell viability assay.
# RKO = format: functional, cell-based, Homo sapiens; conditions: Homo sapiens, RKO;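 also: growth inhibition of human RKO cells, read out with a cell viability assay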
# Description: SANGER: Inhibition of human RKO cell growth in a cell viability assay.
# NOMO-1 = format: functional, cell-based, Homo sapiens; conditions: Homo sapiens, NOMO-1;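 also: growth inhibition of human NOMO-1 cells measured by a cell viability assay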
# Description: SANGER: Inhibition of human NOMO-1 cell growth in a cell viability assay.
# EKVX = format: functional, cell-based, Homo sapiens; conditions: Homo sapiens, EKVX;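 also: growth inhibition of human EKVX cells, read out with a cell viability assay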
# Description: SANGER: Inhibition of human EKVX cell growth in a cell viability assay.
# CTV-1 = format: functional, cell-based, Homo sapiens; conditions: Homo sapiens, CTV-1;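 also: growth inhibition of the cell line, read out with a cell viability assay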
# Description: SANGER: Inhibition of human CTV-1 cell growth in a cell viability assay.
# KY821 = format: functional, cell-based, Homo sapiens; conditions: Homo sapiens, KY821;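 also: growth inhibition of human KY821 cells, read out by a cell viability assay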
# Description: SANGER: Inhibition of human KY821 cell growth in a cell viability assay.
# TE-12 = format: functional, cell-based, Homo sapiens; conditions: Homo sapiens, TE-12;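 also: growth inhibition of TE-12 cells, read out by a cell viability assay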
# Description: SANGER: Inhibition of human TE-12 cell growth in a cell viability assay.
# COLO-668 = format: functional, cell-based, Homo sapiens; conditions: Homo sapiens, COLO-668
# Description: SANGER: Inhibition of human COLO-668 cell growth in a cell viability assay.
# DOHH-2 = format: functional, cell-based, Homo sapiens; conditions: Homo sapiens, DOHH-2;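 also: growth inhibition of human DOHH-2 cells, read out with a cell viability assay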
# Description: SANGER: Inhibition of human DOHH-2 cell growth in a cell viability assay.
# NB5 = format: functional, cell-based, Homo sapiens; conditions: Homo sapiens, NB5;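 also: growth inhibition of NB5 cells, read out as cell viability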
# Description: SANGER: Inhibition of human NB5 cell growth in a cell viability assay.
# MHH-PREB-1 = format: functional, cell-based, Homo sapiens; conditions: Homo sapiens, MHH-PREB-1;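 also: cell viability assay measuring inhibition of proliferation of human MHH-PREB-1 cells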
# Description: SANGER: Inhibition of human MHH-PREB-1 cell growth in a cell viability assay.
# MS-1 = format: functional, cell-based, Homo sapiens; conditions: Homo sapiens, MS-1;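 also: growth inhibition of MS-1 cells, read out by cell viability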
# Description: SANGER: Inhibition of human MS-1 cell growth in a cell viability assay.
# BT-474 = format: functional, cell-based, Homo sapiens; conditions: Homo sapiens, BT-474
# Description: SANGER: Inhibition of human BT-474 cell growth in a cell viability assay.
# TGW = format: functional, cell-based, Homo sapiens; conditions: Homo sapiens, TGW;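 also: growth inhibition of human TGW cells, read out with a cell viability assay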
# Description: SANGER: Inhibition of human TGW cell growth in a cell viability assay.
# OMC-1 = format: functional, cell-based, Homo sapiens; conditions: Homo sapiens, OMC-1;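 also: growth inhibition of the OMC-1 cell line, measured by a cell viability assay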
# Description: SANGER: Inhibition of human OMC-1 cell growth in a cell viability assay.
# EW-18 = format: functional, cell-based, Homo sapiens; conditions: Homo sapiens, EW-18;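 also: growth inhibition of EW-18 cells, read out by a cell viability assay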
# Description: SANGER: Inhibition of human EW-18 cell growth in a cell viability assay.
# KGN = format: functional, cell-based, Homo sapiens; conditions: Homo sapiens, KGN;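 also: growth inhibition of KGN cells, read out with a cell viability assay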
# Description: SANGER: Inhibition of human KGN cell growth in a cell viability assay.
# NKM-1 = format: functional, cell-based, Homo sapiens; conditions: Homo sapiens, NKM-1;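 also: growth inhibition of NKM-1 cells, read out with a cell viability assay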
# Description: SANGER: Inhibition of human NKM-1 cell growth in a cell viability assay.
# LB2241-RCC = format: functional, cell-based, Homo sapiens; conditions: Homo sapiens, LB2241-RCC;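 also: cell viability assay measuring how strongly the cultured human renal carcinoma line is prevented from growing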
# Description: SANGER: Inhibition of human LB2241-RCC cell growth in a cell viability assay.
# MOLT-4 = format: functional, cell-based, Homo sapiens; conditions: Homo sapiens, MOLT-4;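 also: growth inhibition of MOLT-4 cells, determined with a cell viability readout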
# Description: SANGER: Inhibition of human MOLT-4 cell growth in a cell viability assay.
# ETK-1 = format: functional, cell-based, Homo sapiens; conditions: Homo sapiens, ETK-1;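 also: growth inhibition of human ETK-1 cells, read out with a cell viability assay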
# Description: SANGER: Inhibition of human ETK-1 cell growth in a cell viability assay.
# NB6 = format: functional, cell-based, Homo sapiens; conditions: Homo sapiens, NB6;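 also: growth inhibition of NB6 cells, read out by a cell viability assay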
# Description: SANGER: Inhibition of human NB6 cell growth in a cell viability assay.
# Lu-65 = format: functional, cell-based, Homo sapiens; conditions: Homo sapiens, Lu-65;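 also: growth inhibition of Lu-65 cancer cells, read out by a cell viability assay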
# Description: SANGER: Inhibition of human LU-65 cell growth in a cell viability assay.
# NCI-H1155 = format: functional, cell-based, Homo sapiens; conditions: Homo sapiens, NCI-H1155;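 also: cell growth inhibition measured by a viability assay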
# Description: SANGER: Inhibition of human NCI-H1155 cell growth in a cell viability assay.
# KNS-42 = format: functional, cell-based, Homo sapiens; conditions: Homo sapiens, KNS-42;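 also: growth inhibition of KNS-42 cells, read out with a cell viability assay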
# Description: SANGER: Inhibition of human KNS-42 cell growth in a cell viability assay.
# RXF 393 = format: functional, cell-based, Homo sapiens; conditions: Homo sapiens, RXF 393;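 also: growth inhibition of human RXF 393 cells, read out with a cell viability assay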
# Description: SANGER: Inhibition of human RXF393 cell growth in a cell viability assay.
# MN-60 = format: functional, cell-based, Homo sapiens; conditions: Homo sapiens, MN-60;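 also: growth inhibition of the MN-60 cell line, determined with a cell viability assay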
# Description: SANGER: Inhibition of human MN-60 cell growth in a cell viability assay.
# SK-N-FI = format: functional, cell-based, Homo sapiens; conditions: Homo sapiens, SK-N-FI;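 also: cell viability assay measuring growth inhibition of human SK-N-FI cells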
# Description: SANGER: Inhibition of human SK-N-FI cell growth in a cell viability assay.
# GCIY = format: functional, cell-based, Homo sapiens; conditions: Homo sapiens, GCIY;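 also: growth inhibition of the human GCIY cell line, read out by a cell viability assay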
# Description: SANGER: Inhibition of human GCIY cell growth in a cell viability assay.
# JVM-3 = format: functional, cell-based, Homo sapiens; conditions: Homo sapiens, JVM-3;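 also: growth inhibition of human JVM-3 cells, read out with a cell viability assay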
# Description: SANGER: Inhibition of human JVM-3 cell growth in a cell viability assay.
# CP66-MEL = format: functional, cell-based, Homo sapiens; conditions: Homo sapiens, CP66-MEL;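 also: growth inhibition of CP66-MEL cells determined in a cell viability assay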
# Description: SANGER: Inhibition of human CP66-MEL cell growth in a cell viability assay.
# SF-268 = format: functional, cell-based, Homo sapiens; conditions: Homo sapiens, SF-268;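 also: growth inhibition of SF-268 cells determined with a cell viability assay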
# Description: SANGER: Inhibition of human SF268 cell growth in a cell viability assay.
# NCI-H1092 = format: functional, cell-based, Homo sapiens; conditions: Homo sapiens, NCI-H1092;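 also: cell growth inhibition measured with a cell viability assay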
# Description: SANGER: Inhibition of human NCI-H1092 cell growth in a cell viability assay.
# MEG-01 = format: functional, cell-based, Homo sapiens; conditions: Homo sapiens, MEG-01;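 also: growth inhibition of MEG-01 cells, read out by a cell viability assay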
# Description: SANGER: Inhibition of human MEG-01 cell growth in a cell viability assay.
# HuTu80 = format: functional, cell-based, Homo sapiens, HUTU-80; conditions: Homo sapiens, HuTu80;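 also: growth inhibition of HuTu80 human cells, determined with a cell viability readout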
# Description: SANGER: Inhibition of human HUTU-80 cell growth in a cell viability assay.
# HT-144 = format: functional, cell-based, Homo sapiens; conditions: Homo sapiens, HT-144
# Description: SANGER: Inhibition of human HT-144 cell growth in a cell viability assay.
# EOL1 = format: functional, cell-based, Homo sapiens; conditions: Homo sapiens, EOL1;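 also: growth inhibition of EoL-1 cells, read out by a cell viability assay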
# Description: SANGER: Inhibition of human EoL-1-cell cell growth in a cell viability assay.
compound,measurement,setting,value
CC[C@H](CO)Nc1nc(NCc2ccccc2)c2ncn(C(C)C)c2n1 [SELICICLIB],IC50,BB65-RCC,9.97 µM
same,IC50,NEC8,> 16 µM
same,IC50,CW-2,> 16 µM
same,IC50,SW684,> 16 µM
same,IC50,MV4-11,> 16 µM
same,IC50,ES6,> 16 µM
same,IC50,MZ1-PC,> 16 µM
same,IC50,no-10,> 16 µM
same,IC50,KM12,> 16 µM
same,IC50,8-MG-BA,> 16 µM
same,IC50,IST-MEL1,> 16 µM
same,IC50,DB,> 16 µM
same,IC50,RKO,> 16 µM
same,IC50,NOMO-1,> 16 µM
same,IC50,EKVX,> 16 µM
same,IC50,CTV-1,> 16 µM
same,IC50,KY821,> 16 µM
same,IC50,TE-12,> 16 µM
same,IC50,COLO-668,> 16 µM
same,IC50,DOHH-2,> 16 µM
same,IC50,NB5,> 16 µM
same,IC50,MHH-PREB-1,> 16 µM
same,IC50,MS-1,> 16 µM
same,IC50,BT-474,> 16 µM
same,IC50,TGW,> 16 µM
same,IC50,OMC-1,> 16 µM
same,IC50,EW-18,> 16 µM
same,IC50,KGN,> 16 µM
same,IC50,NKM-1,> 16 µM
same,IC50,LB2241-RCC,> 16 µM
same,IC50,MOLT-4,> 16 µM
same,IC50,ETK-1,> 16 µM
same,IC50,NB6,> 16 µM
same,IC50,Lu-65,> 16 µM
same,IC50,NCI-H1155,> 16 µM
same,IC50,KNS-42,> 16 µM
same,IC50,RXF 393,> 16 µM
same,IC50,MN-60,> 16 µM
same,IC50,SK-N-FI,> 16 µM
same,IC50,GCIY,12.9 µM
same,IC50,JVM-3,> 16 µM
same,IC50,CP66-MEL,> 16 µM
same,IC50,SF-268,> 16 µM
same,IC50,NCI-H1092,> 16 µM
same,IC50,MEG-01,13.8 µM
same,IC50,HuTu80,> 16 µM
same,IC50,HT-144,> 16 µM
same,IC50,EOL1,> 16 µM

# From ChEMBL document CHEMBL1201861, “Genomics of Drug Sensitity in Cancer screening data, Wellcome Trust Sanger Institute”
